Measured values published in ChEMBL document CHEMBL4364325, “Synthesis, pharmacological and structural studies of 5-substituted-3-(1-arylmethyl-1,2,3,6-tetrahydropyridin-4-yl)-1H-indoles as multi-target ligands of aminergic GPCRs” (Eur J Med Chem, 2019).
Activity calls are given as the source filed them. No cut-off for these calls is given here.

Assays:
D(2) dopamine receptor [1] = biological target: T1, D(2) dopamine receptor (Homo sapiens, UniProt P14416); assay: Displacement of [3H]Spiperone from human D2S receptor expressed in CHOK1 cell membranes measured after 120 mins
[2] = biological target: T2, 5-hydroxytryptamine receptor 2A (Homo sapiens, UniProt P28223); assay: Displacement of [3H]ketanserin from human 5HT2A receptor expressed in HEK293 cell membranes at 10 uM measured after 30 mins relative to control
[3] = biological target: T3, 5-hydroxytryptamine receptor 1A (Homo sapiens, UniProt P08908); assay: Displacement of [3H]8-OH-DPAT from human 5HT1A receptor expressed in HEK293 cell membranes measured after 120 mins
T3 sequence (P08908 whole entry): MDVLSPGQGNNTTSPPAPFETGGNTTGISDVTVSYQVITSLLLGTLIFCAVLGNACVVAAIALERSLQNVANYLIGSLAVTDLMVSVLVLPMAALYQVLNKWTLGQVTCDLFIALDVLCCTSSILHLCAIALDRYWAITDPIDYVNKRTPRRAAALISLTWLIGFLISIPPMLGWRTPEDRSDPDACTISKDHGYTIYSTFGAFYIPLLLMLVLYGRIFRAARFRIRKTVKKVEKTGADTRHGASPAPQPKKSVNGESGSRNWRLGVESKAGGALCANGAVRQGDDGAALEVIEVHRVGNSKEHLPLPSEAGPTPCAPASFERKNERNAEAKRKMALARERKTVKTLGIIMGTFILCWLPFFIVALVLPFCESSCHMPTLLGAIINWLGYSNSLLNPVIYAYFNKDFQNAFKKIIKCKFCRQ

[4] = biological target: T4, 5-hydroxytryptamine receptor 1A (Homo sapiens) (UniProt P08908); assay: Agonist activity at human 5HT1A receptor expressed in HEK293 cell membranes assessed as maximal inhibition of forskolin induced cAMP production incubated for 24 hrs followed by forskolin addition by HTRF assay relative to control; type: functional, cell-based
T4 sequence (whole entry): T3 sequence (P08908 whole entry)

D(2) dopamine receptor [5] = biological target: T1, D(2) dopamine receptor; assay: Displacement of [3H]Spiperone from human D2S receptor expressed in CHOK1 cell membranes at 10 uM measured after 120 mins relative to control
[6] = biological target: T2, 5-hydroxytryptamine receptor 2A; assay: Antagonist activity at human 5HT2A receptor expressed in CHOK1 cells assessed as inhibition of inositol phosphate production incubated for 24 hrs followed by 5-HT addition by Cheng-Prusoff equation analysis; type: functional, cell-based
Homo sapiens = species on record: Homo sapiens; assay: Selectivity ratio of Kb for human 5HT2A receptor expressed in CHOK1 cells to Kb for human D2S receptor expressed in CHOK1 cells; type: cell-based
D(2) dopamine receptor [7] = biological target: T1, D(2) dopamine receptor; assay: Antagonist activity at human D2S receptor expressed in CHOK1 cells assessed as suppression of dopamine-induced inhibition of forskolin-stimulated cAMP accumulation preincubated for 5 mins followed by dopamine and forskolin addition and measured after 10 mins by HTRF assay; type: functional, cell-based
[8] = biological target: T2, 5-hydroxytryptamine receptor 2A; assay: Displacement of [3H]ketanserin from human 5HT2A receptor expressed in HEK293 cell membranes measured after 30 mins; type: cell-based
[9] = biological target: T2, 5-hydroxytryptamine receptor 2A; type: functional, cell-based
Description: Antagonist activity at human 5HT2A receptor expressed in CHOK1 cells assessed as inhibition of 5-HT induced inositol phosphate production incubated for 24 hrs followed by 5-HT addition by HTRF assay

D(2) dopamine receptor [10] = biological target: T1, D(2) dopamine receptor; assay: Agonist activity at human D2 receptor expressed in CHOK1 cells assessed as inhibition of forskolin induced cAMP production at 0.1 nM to 100 uM incubated for 10 mins followed by forskolin addition and measured after 5 mins by HTRF assay; type: functional, cell-based
D(2) dopamine receptor [11] = biological target: T1, D(2) dopamine receptor; assay: Competitive antagonist activity at human D2S receptor expressed in CHOK1 cells assessed as quinpirole mediated inhibition of forskolin induced cAMP accumulation by measuring parallel rightward shifts of quinpirole concentration-response curves incubated for 10 mins by HTRF assay based Schild plot analysis; type: functional, cell-based
D(3) dopamine receptor = D(3) dopamine receptor (Homo sapiens, UniProt P35462); assay: Displacement of [3H]Spiperone from human D3 receptor expressed in commercial cell membranes
[12] = biological target: T3, 5-hydroxytryptamine receptor 1A; assay: Displacement of [3H]8-OH-DPAT from human 5HT1A receptor expressed in HEK293 cell membranes
D(1A) dopamine receptor = D(1A) dopamine receptor (Homo sapiens, UniProt P21728); assay: Displacement of [3H]SCH23390 from human D1 receptor expressed in commercial cell membranes
[13] = biological target: T2, 5-hydroxytryptamine receptor 2A; assay: Displacement of [3H]ketanserin from human 5HT2A receptor expressed in CHO cell membranes
D(2) dopamine receptor [14] = biological target: T1, D(2) dopamine receptor; assay: Displacement of [3H]Spiperone from human D2S receptor expressed in CHO cell membranes
Mus musculus [15] = assay: Antipsychotic activity in Swiss mouse assessed as decrease in amphetamine-induced hyperlocomotion at 50 mg/kg, ip pretreated for 60 mins followed by amphetamine administration and measured for 30 mins; type: functional, organism-based
Mus musculus [16] = assay: Cognition enhancing effect in Swiss mouse assessed as increase in latency index at 50 mg/kg, ip as acute administration measured after 24 hrs by passive avoidance test; type: functional, organism-based
Mus musculus [17] = assay: Antidepressant activity in Swiss mouse assessed as decrease in immobility time at 50 mg/kg, ip as acute administration measured during last 4 mins for 6 mins by forced swim test; type: functional, organism-based
Mus musculus [18] = assay: Antidepressant activity in Swiss mouse assessed as increase in latency time at 50 mg/kg, ip as acute administration measured during last 4 mins for 6 mins by forced swim test; type: functional, organism-based
[19] = Toxicity in Swiss mouse assessed as induction of motor coordination impairments at 50 mg/kg, ip measured after 60 mins by chimney test; type: organism-based; details: in vivo, 1 h

T2 sequence (P28223 whole entry): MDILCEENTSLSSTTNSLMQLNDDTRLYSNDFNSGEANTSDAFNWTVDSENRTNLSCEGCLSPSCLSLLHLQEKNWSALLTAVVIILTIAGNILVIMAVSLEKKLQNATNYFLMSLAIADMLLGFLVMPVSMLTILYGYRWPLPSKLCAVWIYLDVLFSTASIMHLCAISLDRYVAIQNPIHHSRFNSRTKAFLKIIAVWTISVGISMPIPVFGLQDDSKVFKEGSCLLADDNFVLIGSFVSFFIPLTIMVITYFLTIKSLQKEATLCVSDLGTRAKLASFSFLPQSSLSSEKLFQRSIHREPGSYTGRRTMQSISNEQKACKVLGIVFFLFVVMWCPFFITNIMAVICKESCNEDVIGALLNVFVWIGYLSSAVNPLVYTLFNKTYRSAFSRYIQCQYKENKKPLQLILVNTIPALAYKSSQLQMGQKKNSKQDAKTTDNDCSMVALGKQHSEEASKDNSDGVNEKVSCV
T1 sequence (P14416 whole entry): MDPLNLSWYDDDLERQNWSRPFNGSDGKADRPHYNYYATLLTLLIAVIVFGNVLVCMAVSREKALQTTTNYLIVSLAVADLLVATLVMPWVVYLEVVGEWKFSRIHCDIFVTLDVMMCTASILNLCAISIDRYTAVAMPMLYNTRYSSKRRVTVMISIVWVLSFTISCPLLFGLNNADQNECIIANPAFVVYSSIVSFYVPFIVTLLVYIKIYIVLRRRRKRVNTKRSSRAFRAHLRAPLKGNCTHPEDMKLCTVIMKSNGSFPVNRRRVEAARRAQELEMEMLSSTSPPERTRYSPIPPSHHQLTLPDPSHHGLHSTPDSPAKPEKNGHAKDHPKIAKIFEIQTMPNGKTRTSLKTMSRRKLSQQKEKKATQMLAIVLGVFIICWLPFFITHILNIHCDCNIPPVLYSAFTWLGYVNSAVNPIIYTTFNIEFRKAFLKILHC
D(3) dopamine receptor, sequence (P35462 whole entry): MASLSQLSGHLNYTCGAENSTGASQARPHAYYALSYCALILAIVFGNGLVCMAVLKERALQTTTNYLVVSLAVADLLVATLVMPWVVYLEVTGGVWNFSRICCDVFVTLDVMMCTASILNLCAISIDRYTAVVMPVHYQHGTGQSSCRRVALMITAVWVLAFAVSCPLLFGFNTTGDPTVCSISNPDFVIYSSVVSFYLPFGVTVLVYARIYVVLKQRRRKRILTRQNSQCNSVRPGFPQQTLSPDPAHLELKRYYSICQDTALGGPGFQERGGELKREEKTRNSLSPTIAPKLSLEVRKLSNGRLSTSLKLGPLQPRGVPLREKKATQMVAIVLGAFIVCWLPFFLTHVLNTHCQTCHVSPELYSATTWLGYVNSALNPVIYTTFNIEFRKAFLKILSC
D(1A) dopamine receptor, sequence (P21728 whole entry): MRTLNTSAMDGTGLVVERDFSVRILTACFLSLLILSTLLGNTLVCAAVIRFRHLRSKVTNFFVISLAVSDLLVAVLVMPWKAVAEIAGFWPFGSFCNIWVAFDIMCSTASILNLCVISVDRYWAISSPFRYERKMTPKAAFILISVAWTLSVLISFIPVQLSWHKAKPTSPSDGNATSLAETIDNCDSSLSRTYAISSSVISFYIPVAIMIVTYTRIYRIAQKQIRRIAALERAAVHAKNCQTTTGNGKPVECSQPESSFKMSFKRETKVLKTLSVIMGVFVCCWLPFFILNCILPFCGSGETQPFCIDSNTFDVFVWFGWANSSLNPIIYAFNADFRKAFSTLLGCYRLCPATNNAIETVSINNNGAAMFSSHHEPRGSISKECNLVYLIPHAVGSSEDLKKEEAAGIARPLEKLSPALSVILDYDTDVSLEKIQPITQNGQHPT

| SMILES | Ki (D(2) dopamine receptor [1]) | inhibition [2] | Ki [3] | also measured |
| --- | --- | --- | --- | --- |
| COc1ccc2[nH]cc(C3=CCN(Cc4ccccc4)CC3)c2c1 | 62.7 nM | 41% | 139 nM | – |
| CCOc1ccc2[nH]cc(C3=CCN(Cc4ccc(OC)cc4)CC3)c2c1 | 132 nM | 38% | 194 nM | – |
| NCCc1c[nH]c2ccc(C(N)=O)cc12 | – | – | – | Emax [4]: 95% |
| COc1ccc(CN2CC=C(c3c[nH]c4ccc(OC)cc34)CC2)cc1 | 148 nM | 48% | 134 nM | – |
| CCOc1ccc2[nH]cc(C3=CCN(Cc4ccco4)CC3)c2c1 | – | 47% | 486 nM | inhibition (D(2) dopamine receptor [5]): 62% |
| C1=C(c2c[nH]c3ccccc23)CCN(Cc2ccccc2)C1 | 25.8 nM | – | 354 nM | Kb [6]: 279 nM; Selectivity ratio (Homo sapiens): 80; Activity (D(2) dopamine receptor [7]): Dose-dependent effect; Ki [8]: 125 nM; Emax [4]: 89%; IC50 [9]: 2620 nM; Activity (D(2) dopamine receptor [10]): inactive; Activity (D(2) dopamine receptor [11]): Dose-dependent effect; Kb (D(2) dopamine receptor [11]): 3.51 nM; pKb (D(2) dopamine receptor [11]): 8.45 |
| COc1ccc(CN2CC=C(c3c[nH]c4ccc(OC(C)C)cc34)CC2)cc1 | 165 nM | 36% | 378 nM | – |
| CC(C)Oc1ccc2[nH]cc(C3=CCN(Cc4ccccc4)CC3)c2c1 | 321 nM | 32% | 203 nM | – |
| COc1cccc(CN2CC=C(c3c[nH]c4ccc(OC)cc34)CC2)c1 | 112 nM | 24% | 135 nM | – |
| COc1ccc2[nH]cc(C3=CCN(Cc4cc(=O)[nH]c5ccccc45)CC3)c2c1 | – | – | – | Ki (D(3) dopamine receptor): 614 nM; Ki [12]: 125 nM; Ki (D(1A) dopamine receptor): 148 nM; Ki [13]: 358 nM; Ki (D(2) dopamine receptor [14]): 58 nM |
| CC(C)Oc1ccc2[nH]cc(C3=CCN(Cc4ccco4)CC3)c2c1 | – | 5% | 431 nM | inhibition (D(2) dopamine receptor [5]): 51% |
| CCOc1ccc2[nH]cc(C3=CCN(Cc4ccccc4)CC3)c2c1 | – | – | 220 nM | Ki [8]: 2100 nM |
| COc1ccc2[nH]cc(C3=CCN(Cc4cccs4)CC3)c2c1 | 141 nM | – | 157 nM | Ki [8]: 1890 nM |
| COc1cccc(CN2CC=C(c3c[nH]c4ccccc34)CC2)c1 | 26.9 nM | – | 243 nM | Kb [6]: 803 nM; Selectivity ratio (Homo sapiens): 200; Activity (D(2) dopamine receptor [7]): Dose-dependent effect; Ki [8]: 194 nM; Emax [4]: 76%; IC50 [9]: 7980 nM; Activity (D(2) dopamine receptor [10]): inactive; Activity (D(2) dopamine receptor [11]): Dose-dependent effect; Kb (D(2) dopamine receptor [11]): 4.95 nM; pKb (D(2) dopamine receptor [11]): 8.31 |
| CCOc1ccc2[nH]cc(C3=CCN(Cc4cccs4)CC3)c2c1 | 166 nM | 0% | 139 nM | – |
| C1=C(c2c[nH]c3ccccc23)CCN(Cc2ccco2)C1 | 257 nM | – | 752 nM | Ki [8]: 173 nM |
| C1=C(c2c[nH]c3ccccc23)CCN(Cc2cccs2)C1 | 71.9 nM | – | 305 nM | Kb [6]: 238 nM; Selectivity ratio (Homo sapiens): 50; Activity (D(2) dopamine receptor [7]): Dose-dependent effect; Activity (Mus musculus [15]): Active; Activity (Mus musculus [16]): Active; Ki [8]: 171 nM; Emax [4]: 67%; IC50 [9]: 2410 nM; Activity (D(2) dopamine receptor [10]): inactive; Activity (Mus musculus [17]): Active; Activity (Mus musculus [18]): Active; Activity [19]: Non-Toxic; Activity (D(2) dopamine receptor [11]): Dose-dependent effect; Kb (D(2) dopamine receptor [11]): 5.06 nM; pKb (D(2) dopamine receptor [11]): 8.3 |
| CCOc1ccc2[nH]cc(C3=CCN(Cc4cccc(OC)c4)CC3)c2c1 | 108 nM | 3% | 160 nM | – |
| COc1ccc(CN2CC=C(c3c[nH]c4ccccc34)CC2)cc1 | 87.3 nM | 52% | 243 nM | – |
| COc1cccc(CN2CC=C(c3c[nH]c4ccc(OC(C)C)cc34)CC2)c1 | 299 nM | 43% | 290 nM | – |
| CC(C)Oc1ccc2[nH]cc(C3=CCN(Cc4cccs4)CC3)c2c1 | 465 nM | 14% | 214 nM | – |
| COc1ccc2[nH]cc(C3=CCN(Cc4ccco4)CC3)c2c1 | 142 nM | 15% | 195 nM | – |
